Measurements as given in US7371742B2, “Porphyrin derivatives for photodynamic therapy” (Institut Curie, priority 2001, dated 2008).
Like-named read-outs stand apart in the source and are kept apart here.

How the values were obtained:
[1] = tested on: human colic adenocarcinoma cell line HT29
Description: (§1) HT29 cells were cultivated in Dulbecco's MEM supplemented with 10% fetal calf serum (FCS). Cells from log-phase culture were seeded in 24-microwell plates (1 mL-5×10^4 cells/well) and kept at 37° C. in a water-jacketed incubator for 2 days under an air/CO2 atmosphere (5% CO2). Tested compounds, in DMSO solution, were added under the minimum volume (5 μL) to reach a concentration ranging from 0.1 to 10 μg/mL. Controls cells received 5 μL of DMSO free of dye. Plates were incubated 24 h, then medium was removed and the cells were washed twice with phosphate buffered saline (PBS) before addition of fresh medium free of drug and irradiation with visible light using a home made “light box” giving a fluence of 3.8 mW/cm^2 on the whole visible spectrum. Irradiation with red light was carried out using the same device fitted with an orange filter (0% T at 520 nm and 80% T at 590 nm) leading to a fluence of 2 mW/cm^2.
(§2) Plates were reincubated for 3 days before evaluation of the cell survival using the MTT assay (T. Mosmann, “Rapid calorimetric assay for cellular growth and survival. Application to proliferation assays”. J. Immunol. Methods 65,55-63,1983) using 30 min incubation with 100 μg well of 3-[4,5-dimethylthiazol-2-yl]-2,5-diphenyl tetrazolium bromide (MTT, Sigma). After removal of the medium, formazan crystals were taken up with 100 μL of DMSO and absorbance at 540 ni was measured with a Bio-Rad microplate reader (model 450); survival was expressed as % of untreated controls.

[2] = tested on: human colic adenocarcinoma cell line HT29; test: HT29 cell survival (MTT assay) after 24 h incubation, with or without light irradiation; details: for Photocytotoxicity HT 29, concentration giving 50%: 50% effect, with light
Description: as §1, §2

[3] = tested on: RBY-79 (indifferently named Y-79) cells; test: RBY-79 (Y79) cell cytotoxicity / photocytotoxicity; details: for Photocytotoxicity RBY-79, concentration giving 50%: 50% effect, with light
Description: Columns HT29 and Y79 (═RBY79), without light, correspond to the cytotoxic activity.

[4] = patient, cited from earlier work; for period of photosensitivity: after treatment
[5] = tested on: L-1210 cells; test: Cytotoxicity L-1210 (no light), cytostatic activity; assay type: cell-based, human; details: for Cytotoxicity L-1210 (no light), concentration giving 50%: 50% effect
Description: Column L1210 corresponds to the cytostatic activity.

[6] = tested on: tumoral cells; test: Antitumoral photodynamic activity in general (remarks on Tables B and C); assay type: cell-based, human; details: non glycosylated analogue compared with compound 67
Description: The main results for antitumoral effects are reported in Table B, showing the rate of photocytotoxicity. The higher the percentage, the higher the antitumnoral or antiviral effect.
Concerning the antitumoral activity, the compounds obtained by the inventors are active, under appropriate irradiation indicated towards tumoral cells in which these derivatives are able to accumulate.

[7] = tested on: A549; test: A549 photocytotoxicity (entries inside Table B cells); assay type: cell-based; details: A549 named inside the cell; concentration not given
[8] = tested on: FT-1 cells; test: FT-1 cell photocytotoxicity; assay type: cell-based, human; details: Red light; concentration not given
[9] = read-out: HT 29 IC50 (μM) with 2J/cm^2, irradiation with filter (0% T at 520 nm, 80% T at 590 nm), 3.5 mW/cm^2, 10 min
[10] = read-out: HT 29 IC50 (μM) without light, without light (cytotoxic activity)
[11] = read-out: Y79 IC50 (μM) With 2J/cm^2, irradiation with filter (0% T at 520 nm, 80% T at 590 nm), 3.5 mW/cm^2, 10 min
[12] = read-out: Y79 IC50 (μM) without light, without light (cytotoxic activity)
[13] = without light, remark of the inventors

Q: Which results are given for “5, 10, 15-tri(meta-hydroxyphenyl)-20-phenyl)-2,3-chlorin and 5,10,15-tri(3-hydroxyphenyl)-7,8-chlorin [Compound 77-78]”?
A: cytotoxic for HT29 (in words) [1]: cytotoxic; IC50 [2, 9]: 1.5 ± 0.07 µM; IC50 [2, 10]: 6.6 ± 0.9 µM; IC50 [3, 11]: 0.6 ± 0.1 µM; IC50 [3, 12]: > 10 µM

Q: Which period of photosensitivity [4] does the source give for “benzoporphyrin derivative monoacid ring A [Verteporfin]” here?
A: one day

Q: Which “Photocytotoxicity HT 29, concentration giving 50%” value [2] does the source give for `O[C@@H]1[C@@H](O)[C@H](Sc2c(F)c(F)c(-c3c4nc(c(-c5c(F)c(F)c(S[C@@H]6OC[C@@H](O)[C@H](O)[C@H]6O)c(F)c5F)c5ccc([nH]5)c(-c5c(F)c(F)c(S[C@@H]6OC[C@@H](O)[C@H](O)[C@H]6O)c(F)c5F)c5nc(c(-c6c(F)c(F)c(F)c(F)c6F)c6ccc3[nH]6)C=C5)C=C4)c(F)c2F)OC[C@H]1O` [Compound 28, TPP F4(p-S-β-XylOH)3] here?
A: 50% 3.7 μg/ml

Q: And the IC50 [2, 9]?
A: 2.6 µM

Q: And the IC50 [2, 10]?
A: > 10 µM

Q: And the “Photocytotoxicity RBY-79, concentration giving 50%” value [3]?
A: 1.7 µg/mL

Q: What about the IC50 [3, 11] of the same molecule?
A: 1.2 µM

Q: And the IC50 [3, 12]?
A: > 10 µM

Q: And the “Cytotoxicity L-1210 (no light), concentration giving 50%” value ([5]; no light)?
A: 50% 9 μg/ml

Q: For “porfimer sodium [Photofrin ®, reference compound]”, which “time the drug stays in the skin after treatment” value ([4]; makes sensitive to strong light) is on record?
A: approximately 30 days

Q: What about the period of photosensitivity [4] of the same molecule?
A: several weeks

Q: What about the IC50 ([2]; read-out: HT 29 IC50 with 2J/cm^2, estimated concentration, with 2J/cm^2, estimated for mean molecular weight 1178.55 dimer form) of the same molecule?
A: 5.1 µM

Q: What about the “HT 29 IC50 with 2J/cm^2, in μg/ml” value ([2]; with 2J/cm^2) of the same molecule?
A: 6 µg/mL

Q: What about the “HT 29 IC50 without light, in μg/ml” value ([2]; without light) of the same molecule?
A: Inactive for 10 μg/ml

Q: And the IC50 ([3]; read-out: Y79 IC50 With 2J/cm^2, estimated concentration, with 2J/cm^2, estimated for mean molecular weight 1178.55 dimer form)?
A: 2.6 µM

Q: What about the IC50 ([3]; read-out: Y79 IC50 without light, estimated concentration, without light, estimated for mean molecular weight 1178.55 dimer form) of the same molecule?
A: 3.9 µM

Q: What about the “concentration at which cytotoxic for the Y79 cells” value ([3]; remark of the inventors) of the same molecule?
A: more than 3,9 μM

Q: And the “Y79 IC50 With 2J/cm^2, in μg/ml” value ([3]; with 2J/cm^2)?
A: 3 µg/mL

Q: What about the “Y79 IC50 without light” value ([3]; without light) of the same molecule?
A: 4.6 µg/mL

Q: What about the “cytotoxic for Y79 (in words)” value [3, 13] of the same molecule?
A: cytotoxic

Q: Which “biological activities (in words)” value [6] does the source give for “5,10,15-tri(para-O-diethyleneglycoloxyphenyl)-20-phenylporphyrin [Compound 75]” here?
A: totally inactive

Q: And the IC50 [2, 9]?
A: 4.3 µM

Q: What about the IC50 [2, 10] of the same molecule?
A: 6.5 µM

Q: And the IC50 [3, 11]?
A: 1.2 µM

Q: And the IC50 [3, 12]?
A: 4.5 µM

Q: Which results are given for “5,10,15-Tri(3-O-β-D-glucosylphenyl)-2,3-chlorin and 5,10,15-tri(3-O-β-D-glucosylphenyl)-7,8-chlorin [Compound 55]”?
A: Photocytotoxicity A549 [7]: A549, 10%; Photocytotoxicity HT 29, Red ([2]; Red light, concentration not given): Red, 0%; IC50 [2, 9]: 5.7 ± 3 µM; IC50 [2, 10]: > 15 µM; Photocytotoxicity FT-1, Red [8]: 25%; IC50 [3, 11]: 3.7 ± 1.8 µM; IC50 [3, 12]: 8 ± 7 µM; cytotoxic for Y79 (in words) [3, 13]: cytotoxic

Q: Which “Photocytotoxicity HT 29, concentration giving 50%” value [2] does the source give for `OC[C@H]1O[C@H](OCCOCCOc2ccc(-c3c4nc(c(-c5ccc(OCCOCCO[C@H]6O[C@H](CO)[C@@H](O)[C@H](O)[C@@H]6O)cc5)c5ccc([nH]5)c(-c5ccc(OCCOCCO[C@H]6O[C@H](CO)[C@@H](O)[C@H](O)[C@@H]6O)cc5)c5nc(c(-c6ccccc6)c6ccc3[nH]6)C=C5)C=C4)cc2)[C@@H](O)[C@@H](O)[C@@H]1O` [Compound 67, TPP(p-O-DEG-O-α-Mann)3] here?
A: 1.5 µg/mL

Q: What about the IC50 [2, 9] of the same molecule?
A: 0.7 ± 0.4 µM

Q: And the IC50 [2, 10]?
A: > 10 µM

Q: And the “Photocytotoxicity RBY-79, % at 1 μg/ml” value ([3]; 1 μg/ml)?
A: 0% at 1 μg/ml

Q: And the “Photocytotoxicity RBY-79, % at 2 μg/ml” value ([3]; 2 μg/ml)?
A: 80% at 2 μg/ml,

Q: And the “Photocytotoxicity RBY-79, concentration giving 50%” value [3]?
A: 50% at 1.5 μg/ml,

Q: What about the IC50 [3, 11] of the same molecule?
A: 0.3 ± 0.08 µM

Q: And the IC50 [3, 12]?
A: > 10 µM

Q: And the “Cytotoxicity L-1210 (no light), concentration giving 50%” value ([5]; no light)?
A: 50% 8 μg/ml

Q: Which results are given for `OC[C@H]1O[C@@H](OCCOc2cccc(-c3c4nc(c(-c5cccc(OCCO[C@@H]6O[C@H](CO)[C@@H](O)[C@H](O)[C@H]6O)c5)c5ccc([nH]5)c(-c5cccc(OCCO[C@@H]6O[C@H](CO)[C@@H](O)[C@H](O)[C@H]6O)c5)c5nc(c(-c6cccc(OCCO[C@@H]7O[C@H](CO)[C@@H](O)[C@H](O)[C@H]7O)c6)c6ccc3[nH]6)C=C5)C=C4)c2)[C@H](O)[C@@H](O)[C@@H]1O` [Compound 61]?
A: Photocytotoxicity A549 [7]: A549, 0%; Photocytotoxicity FT-1, Red [8]: Red 0%; Cytotoxicity L-1210 (no light), cell marked Red ([5]; cell prints 'Red', concentration not given): Red, 0%

Q: What does the source list for `OC[C@H]1O[C@H](SCc2ccc(-c3c4nc(c(-c5ccc(CS[C@H]6O[C@H](CO)[C@@H](O)[C@H](O)[C@@H]6O)cc5)c5ccc([nH]5)c(-c5ccc(CS[C@H]6O[C@H](CO)[C@@H](O)[C@H](O)[C@@H]6O)cc5)c5nc(c(-c6ccc(CS[C@H]7O[C@H](CO)[C@@H](O)[C@H](O)[C@@H]7O)cc6)c6ccc3[nH]6)C=C5)C=C4)cc2)[C@@H](O)[C@@H](O)[C@@H]1O` [Compound 66, TPP(p-CH2-S-α-MannOH)4]?
A: Photocytotoxicity HT 29, % at 10 μg/ml ([2]; 10 μg/ml): 40%; IC50 [2, 9]: 10 µM; IC50 [2, 10]: 21 µM; Photocytotoxicity RBY-79, % at 10 μg/ml ([3]; 10 μg/ml): 20%; IC50 [3, 11]: 15 µM; IC50 [3, 12]: 28 µM; Cytotoxicity L-1210 (no light), % at 10 μg/ml ([5]; 10 μg/ml, no light): 0% 10 μg/ml
